Reference: ChEMBL document CHEMBL4715829, “Heterodimeric Rifampicin-Tobramycin conjugates break intrinsic resistance of Pseudomonas aeruginosa to doxycycline and chloramphenicol in vitro and in a Galleria mellonella in vivo model” (Eur J Med Chem, 2019)
Values after ≈ are worked out from the molar mass of the structure shown.

Assays:
[1] = tested on: Pseudomonas aeruginosa; test: Antibacterial activity against Pseudomonas aeruginosa PAO1 assessed as fractional inhibitory concentration index in presence of Linezolid incubated for 18 hrs by broth microdilution assay based checkerboard assay; format: functional
[2] = tested on: Pseudomonas aeruginosa; test: Antibacterial activity against Pseudomonas aeruginosa PAO1 assessed as reduction in bacterial growth by measuring chloramphenicol MIC at <=[…] uM in presence of chloramphenicol incubated for 18 hrs by broth microdilution assay based checkerboard assay (reference value: […] microg/ml); format: functional; conditions: dose microM <=10
[3] = tested on: Staphylococcus aureus; test: Antibacterial activity against Staphylococcus aureus ATCC 29213 assessed as reduction in bacterial growth incubated for 18 hrs by broth microdilution assay; format: functional
[4] = tested on: Pseudomonas aeruginosa; test: Antibacterial activity against Pseudomonas aeruginosa PAO1 assessed as fractional inhibitory concentration index in presence of Vancomycin incubated for 18 hrs by broth microdilution assay based checkerboard assay; format: functional
[5] = tested on: Pseudomonas aeruginosa; test: Antibacterial activity against Pseudomonas aeruginosa PAO1 assessed as reduction in bacterial growth by measuring moxifloxacin MIC at <=10 uM in presence of moxifloxacin incubated for 18 hrs by broth microdilution assay based checkerboard assay (reference value: 1 microg/ml); format: functional; conditions: dose microM <=10
[6] = tested on: Pseudomonas aeruginosa; test: Antibacterial activity against Pseudomonas aeruginosa PAO1 assessed as reduction in bacterial growth by measuring colistin MIC at <=10 uM in presence of colistin incubated for 18 hrs by broth microdilution assay based checkerboard assay (reference value: 1 microg/ml); format: functional; conditions: dose microM <=10
[7] = tested on: Pseudomonas aeruginosa; test: Antibacterial activity against Pseudomonas aeruginosa PAO1 assessed as reduction in bacterial growth by measuring linezolid MIC at <=10 uM in presence of linezolid incubated for 18 hrs by broth microdilution assay based checkerboard assay (reference value: 1024 microg/ml); format: functional; conditions: dose microM <=10
[8] = tested on: Pseudomonas aeruginosa; test: Antibacterial activity against gentamicin, tobramycin-resistant Pseudomonas aeruginosa CANWARD 96846 assessed as reduction in bacterial growth incubated for 18 hrs by broth microdilution assay; format: functional
[9] = tested on: Escherichia coli; test: Antibacterial activity against Escherichia coli CAN-ICU 63074 (AMK 32) assessed as reduction in bacterial growth incubated for 18 hrs by broth microdilution assay; format: functional
[10] = tested on: Pseudomonas aeruginosa; test: Antibacterial activity against Pseudomonas aeruginosa PAO1 assessed as reduction in bacterial growth by measuring pleuromutilin MIC at <=10 uM in presence of pleuromutilin incubated for 18 hrs by broth microdilution assay based checkerboard assay (reference value: 512 microg/ml); format: functional; conditions: dose microM <=10
[11] = tested on: Pseudomonas aeruginosa; test: Antibacterial activity against Pseudomonas aeruginosa PAO1 assessed as reduction in bacterial growth by measuring meropenem MIC at <=10 uM in presence of meropenem incubated for 18 hrs by broth microdilution assay based checkerboard assay (reference value: 1 microg/ml); format: functional; conditions: dose microM <=10
[12] = tested on: Pseudomonas aeruginosa; test: Antibacterial activity against Pseudomonas aeruginosa PAO1 assessed as reduction in bacterial growth by measuring aztreonam MIC at <=10 uM in presence of aztreonam incubated for 18 hrs by broth microdilution assay based checkerboard assay (reference value: 4 microg/ml); format: functional; conditions: dose microM <=10
[13] = tested on: Pseudomonas aeruginosa; test: Antibacterial activity against Pseudomonas aeruginosa PAO1 assessed as fractional inhibitory concentration index in presence of Colistin incubated for 18 hrs by broth microdilution assay based checkerboard assay; format: functional
[14] = Cytotoxicity against human HEK293 cells assessed as cell viability at <10 uM incubated for 48 hrs by prestoblue assay; format: cell-based; conditions: read-out: Activity
[15] = tested on: Pseudomonas aeruginosa; test: Antibacterial activity against Pseudomonas aeruginosa PAO1 assessed as reduction in bacterial growth by measuring rifampicin MIC at <=[…] uM in presence of rifampicin incubated for 18 hrs by broth microdilution assay based checkerboard assay (reference value: […] microg/ml); format: functional; conditions: dose microM <=10
[16] = tested on: Pseudomonas aeruginosa; test: Antibacterial activity against Pseudomonas aeruginosa 259-96918 assessed as reduction in bacterial growth incubated for 18 hrs by broth microdilution assay; format: functional
[17] = Cytotoxicity against human HEK293 cells assessed as cell viability at 50 uM incubated for 48 hrs by prestoblue assay; format: cell-based; conditions: read-out: Activity
[18] = tested on: Pseudomonas aeruginosa; test: Antibacterial activity against Pseudomonas aeruginosa PAO1 assessed as fractional inhibitory concentration index in presence of Minocycline incubated for 18 hrs by broth microdilution assay based checkerboard assay; format: functional
[19] = tested on: Pseudomonas aeruginosa; test: Antibacterial activity against Pseudomonas aeruginosa 101885 assessed as reduction in bacterial growth incubated for 18 hrs by broth microdilution assay; format: functional
[20] = tested on: Escherichia coli; test: Antibacterial activity against gentamicin, tobramycin, ciprofloxacin-resistant Escherichia coli ATCC 97615 harboring aac(3')IIa gene assessed as reduction in bacterial growth incubated for 18 hrs by broth microdilution assay; format: functional
[21] = tested on: Pseudomonas aeruginosa; test: Antibacterial activity against Pseudomonas aeruginosa PAO1 assessed as reduction in bacterial growth by measuring erythromycin MIC at <=10 uM in presence of erythromycin incubated for 18 hrs by broth microdilution assay based checkerboard assay (reference value: 256 microg/ml); format: functional; conditions: dose microM <=10
[22] = tested on: Pseudomonas aeruginosa; test: Antibacterial activity against Pseudomonas aeruginosa PAO1 assessed as reduction in bacterial growth by measuring doxycycline MIC at <=[…] uM in presence of doxycycline incubated for 18 hrs by broth microdilution assay based checkerboard assay (reference value: […] microg/ml); format: functional; conditions: dose microM <=10
[23] = tested on: Pseudomonas aeruginosa; test: Antibacterial activity against Pseudomonas aeruginosa 264-101354 assessed as reduction in bacterial growth incubated for 18 hrs by broth microdilution assay; format: functional
[24] = tested on: Pseudomonas aeruginosa; test: Antibacterial activity against Pseudomonas aeruginosa PAO1 assessed as reduction in bacterial growth by measuring tobramycin MIC at <=10 uM in presence of tobramycin incubated for 18 hrs by broth microdilution assay based checkerboard assay (reference value: 1 microg/ml); format: functional; conditions: dose microM <=10
[25] = tested on: Pseudomonas aeruginosa; test: Antibacterial activity against Pseudomonas aeruginosa PAO1 assessed as fractional inhibitory concentration index in presence of Meropenem incubated for 18 hrs by broth microdilution assay based checkerboard assay; format: functional
[26] = tested on: Staphylococcus epidermidis; test: Antibacterial activity against methicillin-susceptible Staphylococcus epidermidis CANWARD 81388 assessed as reduction in bacterial growth incubated for 18 hrs by broth microdilution assay; format: functional
[27] = tested on: Pseudomonas aeruginosa; test: Antibacterial activity against Pseudomonas aeruginosa 750 harboring efflux mutant assessed as reduction in bacterial growth incubated for 18 hrs by broth microdilution assay; format: functional
[28] = tested on: Streptococcus pneumoniae; test: Antibacterial activity against Streptococcus pneumoniae ATCC 49619 assessed as reduction in bacterial growth incubated for 18 hrs by broth microdilution assay; format: functional
[29] = tested on: Pseudomonas aeruginosa; test: Antibacterial activity against Pseudomonas aeruginosa PAO1 assessed as fractional inhibitory concentration index in presence of Fosfomycin incubated for 18 hrs by broth microdilution assay based checkerboard assay; format: functional
[30] = tested on: Pseudomonas aeruginosa; test: Antibacterial activity against Pseudomonas aeruginosa 262-101856 assessed as fractional inhibitory concentration index in presence of chloramphenicol incubated for 18 hrs by broth microdilution assay; format: functional
[31] = tested on: Pseudomonas aeruginosa; test: Antibacterial activity against Pseudomonas aeruginosa 260-97103 assessed as fractional inhibitory concentration index in presence of doxycycline incubated for 18 hrs by broth microdilution assay; format: functional
[32] = tested on: Pseudomonas aeruginosa; test: Antibacterial activity against Pseudomonas aeruginosa 264-101354 assessed as fractional inhibitory concentration index in presence of chloramphenicol incubated for 18 hrs by broth microdilution assay; format: functional
[33] = tested on: Pseudomonas aeruginosa; test: Antibacterial activity against Pseudomonas aeruginosa 100036 assessed as fractional inhibitory concentration index in presence of doxycycline incubated for 18 hrs by broth microdilution assay; format: functional
[34] = tested on: Pseudomonas aeruginosa; test: Antibacterial activity against Pseudomonas aeruginosa 91433 assessed as fractional inhibitory concentration index in presence of doxycycline incubated for 18 hrs by broth microdilution assay; format: functional
[35] = tested on: Pseudomonas aeruginosa; test: Antibacterial activity against Pseudomonas aeruginosa 101243 assessed as fractional inhibitory concentration index in presence of doxycycline incubated for 18 hrs by broth microdilution assay; format: functional

Structure (SMILES) | fractional inhibitory concentration index (FICI) [1] | MIC [2] | MIC [3] | fractional inhibitory concentration index (FICI) [4] | MIC [5] | MIC [6] | MIC [7] | MIC [8] | MIC [9] | MIC [10] | MIC [16] | MIC [19] | MIC [20] | MIC [23] | MIC [26] | MIC [27] | MIC [28] | fractional inhibitory concentration index (FICI) [30] | fractional inhibitory concentration index (FICI) [32] | fractional inhibitory concentration index (FICI) [35] | also measured
CO[C@H]1/C=C/O[C@@]2(C)Oc3c(C)c(O)c4c(O)c(c(/C=N/N5CCN(Cc6cn(CCCCO[C@@H]7[C@@H](O[C@H]8O[C@H](CO)[C@@H](O)[C@H](N)[C@H]8O)[C@H](N)C[C@H](N)[C@H]7O[C@H]7O[C@H](CN)[C@@H](O)C[C@H]7N)nn6)CC5)c(O)c4c3C2=O)NC(=O)/C(C)=C\C=C\[C@H](C)[C@H](O)[C@@H](C)[C@@H](O)[C@@H](C)[C@H](OC(C)=O)[C@@H]1C.O=C(O)C(F)(F)F.O=C(O)C(F)(F)F.O=C(O)C(F)(F)F.O=C(O)C(F)(F)F.O=C(O)C(F)(F)F | 1.03 | 8 µg/mL | 4 µg/mL | 1.03 | 1 µg/mL | 0.5 µg/mL | 1020 µg/mL | > 32 µg/mL | > 32 µg/mL | 512 µg/mL | > 128 µg/mL | 256 µg/mL | > 32 µg/mL | 256 µg/mL | 2 µg/mL | > 256 µg/mL | 1 µg/mL | – | – | – | MIC [11]: 1 µg/mL; MIC [12]: 4 µg/mL; fractional inhibitory concentration index (FICI) [13]: 0.53; viability at 48 h [14]: > 90%; MIC [15]: 4 µg/mL; viability at 48 h, 50 µM [17]: > 70%; fractional inhibitory concentration index (FICI) [18]: 0.26; MIC [21]: 128 µg/mL; MIC [22]: 1 µg/mL; MIC [24]: 1 µg/mL; fractional inhibitory concentration index (FICI) [25]: 1.03; fractional inhibitory concentration index (FICI) [29]: 1.03
CO[C@H]1/C=C/O[C@@]2(C)Oc3c(C)c(O)c4c(O)c(c(/C=N/N5CCN(Cc6cn(CCCCCCO[C@@H]7[C@@H](O[C@H]8O[C@H](CO)[C@@H](O)[C@H](N)[C@H]8O)[C@H](N)C[C@H](N)[C@H]7O[C@H]7O[C@H](CN)[C@@H](O)C[C@H]7N)nn6)CC5)c(O)c4c3C2=O)NC(=O)/C(C)=C\C=C\[C@H](C)[C@H](O)[C@@H](C)[C@@H](O)[C@@H](C)[C@H](OC(C)=O)[C@@H]1C.Cl.Cl.Cl.Cl.Cl | 0.15 | 1 µg/mL | 16 µg/mL | 1.03 | 0.5 µg/mL | 0.5 µg/mL | 128 µg/mL | > 32 µg/mL | > 32 µg/mL | 128 µg/mL | > 128 µg/mL | 256 µg/mL | > 32 µg/mL | 256 µg/mL | 4 µg/mL | 256 µg/mL | 2 µg/mL | <0.125 | 0.063 | 0.125 | fractional inhibitory concentration index (FICI) [31]: <0.133; MIC [11]: 1 µg/mL; MIC [12]: 4 µg/mL; fractional inhibitory concentration index (FICI) [13]: 0.53; viability at 48 h [14]: > 90%; MIC [15]: 4 µg/mL; viability at 48 h, 50 µM [17]: > 70%; fractional inhibitory concentration index (FICI) [18]: 0.28; MIC [21]: 32 µg/mL; fractional inhibitory concentration index (FICI) [33]: 0.078; MIC [22]: 0.5 µg/mL; fractional inhibitory concentration index (FICI) [34]: 0.25; MIC [24]: 1 µg/mL; fractional inhibitory concentration index (FICI) [25]: 1.03; fractional inhibitory concentration index (FICI) [29]: 0.15
CO[C@H]1/C=C/O[C@@]2(C)Oc3c(C)c(O)c4c(O)c(c(/C=N/N5CCN(C)CC5)c(O)c4c3C2=O)NC(=O)/C(C)=C\C=C\[C@H](C)[C@H](O)[C@@H](C)[C@@H](O)[C@@H](C)[C@H](OC(C)=O)[C@@H]1C [RIFAMPIN] | – | – | ≤ 0.25 µg/mL | – | – | – | – | 32 µg/mL (≈ 38.9 µM) | 16 µg/mL (≈ 19.4 µM) | – | 16 µg/mL (≈ 19.4 µM) | 32 µg/mL (≈ 38.9 µM) | 16 µg/mL (≈ 19.4 µM) | 16 µg/mL (≈ 19.4 µM) | ≤ 0.25 µg/mL | 32 µg/mL (≈ 38.9 µM) | ≤ 0.25 µg/mL | 1.5 | 1.5 | 1.5 | –
NC[C@H]1O[C@H](O[C@H]2[C@H](O)[C@@H](O[C@H]3O[C@H](CO)[C@@H](O)[C@H](N)[C@H]3O)[C@H](N)C[C@@H]2N)[C@H](N)C[C@@H]1O [TOBRAMYCIN] | – | – | 0.5 µg/mL (≈ 1.07 µM) | – | – | – | – | 256 µg/mL (≈ 548 µM) | 8 µg/mL (≈ 17.1 µM) | – | 256 µg/mL (≈ 548 µM) | 1 µg/mL (≈ 2.14 µM) | 128 µg/mL (≈ 274 µM) | 128 µg/mL (≈ 274 µM) | ≤ 0.25 µg/mL | 0.5 µg/mL (≈ 1.07 µM) | 2 µg/mL (≈ 4.28 µM) | <=1 | 1 | 1.5 | fractional inhibitory concentration index (FICI) [31]: 1.5; fractional inhibitory concentration index (FICI) [33]: 1.5; fractional inhibitory concentration index (FICI) [34]: 1.5
